Results from article PMC11233931, “Remodeling tumor‐associated macrophage for anti‐cancer effects by rational design of irreversible inhibition of mitogen‐activated protein kinase‐activated protein kinase 2” (MedComm, 2024).

Experiments:
Assay in all cases: Eurofins kinase selectivity profile against 380 other human recombinant kinases (Table S2)
Format in all cases: biochemical
[1] = target: T1, 380 human recombinant protein kinases (Homo sapiens, UniProt P14616); settings: IRR(h), read-out: Inhibition rate
T1 construct: purchased Eurofins (Celle Lévescault)
How it was run: (§1)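 Values come from a contract kinase-profiling service that tested the compound at multiple concentrations across 380 recombinant human kinases, as an off-target check against the MK2 activity.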

[2] = target: T2, 380 human recombinant protein kinases (Homo sapiens, UniProt P19525); settings: PKR(h), read-out: Inhibition rate
T2 construct: purchased Eurofins (Celle Lévescault)
How it was run: as §1

[3] = target: T3, 380 human recombinant protein kinases (Homo sapiens, UniProt P21709); settings: EphA1(h), read-out: Inhibition rate
T3 construct: purchased Eurofins (Celle Lévescault)
T3 sequence (P21709 26-976): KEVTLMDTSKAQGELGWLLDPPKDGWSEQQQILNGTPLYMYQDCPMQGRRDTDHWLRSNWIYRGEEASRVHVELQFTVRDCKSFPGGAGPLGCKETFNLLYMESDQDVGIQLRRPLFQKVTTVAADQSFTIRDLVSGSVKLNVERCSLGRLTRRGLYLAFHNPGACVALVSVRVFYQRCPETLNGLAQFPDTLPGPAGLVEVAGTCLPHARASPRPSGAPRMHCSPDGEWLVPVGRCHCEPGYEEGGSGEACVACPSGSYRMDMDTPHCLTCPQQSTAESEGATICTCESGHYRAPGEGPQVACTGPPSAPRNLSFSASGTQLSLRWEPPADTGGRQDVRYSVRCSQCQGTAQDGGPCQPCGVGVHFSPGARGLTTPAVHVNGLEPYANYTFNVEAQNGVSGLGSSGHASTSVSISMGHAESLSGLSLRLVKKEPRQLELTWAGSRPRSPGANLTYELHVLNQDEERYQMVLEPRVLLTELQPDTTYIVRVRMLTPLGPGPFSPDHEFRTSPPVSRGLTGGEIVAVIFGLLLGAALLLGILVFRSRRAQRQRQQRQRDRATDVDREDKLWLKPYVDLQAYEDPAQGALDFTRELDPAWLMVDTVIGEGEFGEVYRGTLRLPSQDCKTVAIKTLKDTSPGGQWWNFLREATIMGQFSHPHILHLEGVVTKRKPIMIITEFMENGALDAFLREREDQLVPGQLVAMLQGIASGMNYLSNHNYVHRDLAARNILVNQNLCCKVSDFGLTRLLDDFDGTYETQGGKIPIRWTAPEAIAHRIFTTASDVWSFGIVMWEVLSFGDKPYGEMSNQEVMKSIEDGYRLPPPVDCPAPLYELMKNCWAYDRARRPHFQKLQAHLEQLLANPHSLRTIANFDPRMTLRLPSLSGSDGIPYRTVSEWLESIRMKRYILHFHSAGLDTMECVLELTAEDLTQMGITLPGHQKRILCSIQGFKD
How it was run: as §1

[4] = target: T4, 380 human recombinant protein kinases (Homo sapiens, UniProt P22607); settings: FGFR3(h), read-out: Inhibition rate
T4 construct: purchased Eurofins (Celle Lévescault)
How it was run: as §1

[5] = target: T5, 380 human recombinant protein kinases (Homo sapiens, UniProt P42336, E542K); settings: PI3 Kinase (p110α(E542K)/p85α)(h), read-out: Inhibition rate (%)
T5 construct: purchased Eurofins (Celle Lévescault)
How it was run: as §1

[6] = target: T6, 380 human recombinant protein kinases (Homo sapiens, UniProt Q9UHD2); settings: TBK1(h), read-out: Inhibition rate (%)
T6 construct: purchased Eurofins (Celle Lévescault)
T6 sequence (Q9UHD2 1-729): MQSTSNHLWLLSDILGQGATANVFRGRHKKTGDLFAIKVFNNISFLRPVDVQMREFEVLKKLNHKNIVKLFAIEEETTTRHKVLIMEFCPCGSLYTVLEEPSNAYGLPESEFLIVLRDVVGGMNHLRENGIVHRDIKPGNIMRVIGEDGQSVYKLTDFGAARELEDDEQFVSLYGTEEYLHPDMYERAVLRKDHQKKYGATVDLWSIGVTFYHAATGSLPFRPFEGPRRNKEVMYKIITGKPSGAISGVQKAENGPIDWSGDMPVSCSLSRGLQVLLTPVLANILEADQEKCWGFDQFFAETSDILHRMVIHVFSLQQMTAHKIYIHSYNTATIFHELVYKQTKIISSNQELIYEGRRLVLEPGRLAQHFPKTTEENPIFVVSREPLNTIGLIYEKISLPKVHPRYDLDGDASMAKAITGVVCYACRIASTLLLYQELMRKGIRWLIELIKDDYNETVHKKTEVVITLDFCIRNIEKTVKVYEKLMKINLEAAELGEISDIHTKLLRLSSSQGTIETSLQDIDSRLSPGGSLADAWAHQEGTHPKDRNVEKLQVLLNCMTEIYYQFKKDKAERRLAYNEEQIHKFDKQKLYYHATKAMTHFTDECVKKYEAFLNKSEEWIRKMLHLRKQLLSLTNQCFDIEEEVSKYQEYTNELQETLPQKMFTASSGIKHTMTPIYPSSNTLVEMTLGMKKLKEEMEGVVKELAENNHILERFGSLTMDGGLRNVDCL
How it was run: as §1

T1 sequence (P14616 27-1297): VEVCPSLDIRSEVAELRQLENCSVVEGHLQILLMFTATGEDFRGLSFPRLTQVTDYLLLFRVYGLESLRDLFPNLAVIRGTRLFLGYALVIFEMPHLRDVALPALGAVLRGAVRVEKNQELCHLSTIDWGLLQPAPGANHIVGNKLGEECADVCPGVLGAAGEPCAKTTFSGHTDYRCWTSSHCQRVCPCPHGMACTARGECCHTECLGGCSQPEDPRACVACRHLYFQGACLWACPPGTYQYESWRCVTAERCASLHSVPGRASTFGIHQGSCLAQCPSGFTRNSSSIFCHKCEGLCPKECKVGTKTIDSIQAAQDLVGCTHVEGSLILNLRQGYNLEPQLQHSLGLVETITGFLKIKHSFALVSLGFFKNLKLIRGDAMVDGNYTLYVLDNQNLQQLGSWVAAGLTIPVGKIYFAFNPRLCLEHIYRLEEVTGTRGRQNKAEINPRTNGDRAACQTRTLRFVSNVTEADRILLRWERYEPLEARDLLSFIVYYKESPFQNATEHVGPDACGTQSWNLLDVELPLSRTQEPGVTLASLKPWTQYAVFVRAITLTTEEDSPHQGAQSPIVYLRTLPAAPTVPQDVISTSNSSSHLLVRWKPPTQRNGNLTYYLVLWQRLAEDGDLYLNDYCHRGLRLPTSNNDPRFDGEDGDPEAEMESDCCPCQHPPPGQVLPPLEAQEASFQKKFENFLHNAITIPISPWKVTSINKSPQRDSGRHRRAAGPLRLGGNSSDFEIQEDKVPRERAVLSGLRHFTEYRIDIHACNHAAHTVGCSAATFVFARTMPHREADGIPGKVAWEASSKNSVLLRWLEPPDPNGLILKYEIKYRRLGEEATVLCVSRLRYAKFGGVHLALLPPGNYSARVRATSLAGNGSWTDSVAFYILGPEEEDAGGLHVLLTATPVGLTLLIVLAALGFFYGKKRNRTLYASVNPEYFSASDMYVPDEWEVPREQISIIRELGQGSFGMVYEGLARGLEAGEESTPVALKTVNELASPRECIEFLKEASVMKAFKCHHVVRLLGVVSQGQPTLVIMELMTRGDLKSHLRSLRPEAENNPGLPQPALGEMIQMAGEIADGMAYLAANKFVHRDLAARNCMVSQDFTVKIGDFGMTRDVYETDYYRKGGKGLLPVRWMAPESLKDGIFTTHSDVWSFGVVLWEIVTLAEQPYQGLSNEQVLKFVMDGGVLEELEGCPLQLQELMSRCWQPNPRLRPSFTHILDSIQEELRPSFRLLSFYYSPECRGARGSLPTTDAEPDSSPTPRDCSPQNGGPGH
T5 sequence (P42336 whole entry E542K): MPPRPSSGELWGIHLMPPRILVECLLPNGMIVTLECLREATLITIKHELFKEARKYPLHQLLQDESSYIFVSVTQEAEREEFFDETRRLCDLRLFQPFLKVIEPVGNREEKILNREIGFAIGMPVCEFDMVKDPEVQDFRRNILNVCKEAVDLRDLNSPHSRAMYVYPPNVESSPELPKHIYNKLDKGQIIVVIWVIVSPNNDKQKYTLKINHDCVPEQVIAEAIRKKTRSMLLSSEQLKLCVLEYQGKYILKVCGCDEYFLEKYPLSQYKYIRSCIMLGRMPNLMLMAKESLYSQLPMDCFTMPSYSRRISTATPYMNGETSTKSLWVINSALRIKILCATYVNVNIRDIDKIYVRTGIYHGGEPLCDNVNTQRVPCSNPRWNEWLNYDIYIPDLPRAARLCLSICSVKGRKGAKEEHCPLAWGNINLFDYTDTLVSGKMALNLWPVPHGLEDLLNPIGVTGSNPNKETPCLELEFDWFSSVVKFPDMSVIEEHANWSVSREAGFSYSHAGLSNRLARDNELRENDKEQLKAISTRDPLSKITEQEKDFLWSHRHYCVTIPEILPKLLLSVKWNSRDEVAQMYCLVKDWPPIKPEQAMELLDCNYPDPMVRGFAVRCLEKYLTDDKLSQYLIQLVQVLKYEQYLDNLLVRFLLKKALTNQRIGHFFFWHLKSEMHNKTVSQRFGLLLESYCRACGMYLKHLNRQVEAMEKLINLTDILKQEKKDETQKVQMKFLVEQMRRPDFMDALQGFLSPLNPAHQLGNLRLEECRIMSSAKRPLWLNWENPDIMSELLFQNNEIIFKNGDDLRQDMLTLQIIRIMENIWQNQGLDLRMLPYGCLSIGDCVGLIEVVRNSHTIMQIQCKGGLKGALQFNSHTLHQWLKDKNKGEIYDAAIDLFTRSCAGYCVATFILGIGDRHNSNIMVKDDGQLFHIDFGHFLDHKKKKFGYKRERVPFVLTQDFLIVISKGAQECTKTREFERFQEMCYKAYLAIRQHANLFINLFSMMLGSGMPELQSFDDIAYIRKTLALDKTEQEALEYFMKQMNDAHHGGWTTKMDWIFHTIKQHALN
T4 sequence (P22607 23-806): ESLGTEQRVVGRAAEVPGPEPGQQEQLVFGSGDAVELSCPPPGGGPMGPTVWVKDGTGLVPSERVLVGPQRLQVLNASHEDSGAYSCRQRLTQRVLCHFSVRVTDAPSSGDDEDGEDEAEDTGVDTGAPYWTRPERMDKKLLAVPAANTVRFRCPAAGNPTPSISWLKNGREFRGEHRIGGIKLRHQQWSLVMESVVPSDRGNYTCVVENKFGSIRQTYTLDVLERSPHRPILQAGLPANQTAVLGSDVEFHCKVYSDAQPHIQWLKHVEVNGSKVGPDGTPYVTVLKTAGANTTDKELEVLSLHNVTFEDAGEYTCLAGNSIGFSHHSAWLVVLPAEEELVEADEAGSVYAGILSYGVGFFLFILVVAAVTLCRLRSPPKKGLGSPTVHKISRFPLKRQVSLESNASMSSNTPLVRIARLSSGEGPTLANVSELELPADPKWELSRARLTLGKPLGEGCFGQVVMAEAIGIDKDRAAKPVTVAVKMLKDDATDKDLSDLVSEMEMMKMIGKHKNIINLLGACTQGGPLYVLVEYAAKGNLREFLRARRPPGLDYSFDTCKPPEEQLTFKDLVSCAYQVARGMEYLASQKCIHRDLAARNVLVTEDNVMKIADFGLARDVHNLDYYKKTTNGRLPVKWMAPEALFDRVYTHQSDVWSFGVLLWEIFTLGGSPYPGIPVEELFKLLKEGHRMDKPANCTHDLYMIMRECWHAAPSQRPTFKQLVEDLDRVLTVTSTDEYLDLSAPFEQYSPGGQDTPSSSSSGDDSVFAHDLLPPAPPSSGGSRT
T2 sequence (P19525 whole entry): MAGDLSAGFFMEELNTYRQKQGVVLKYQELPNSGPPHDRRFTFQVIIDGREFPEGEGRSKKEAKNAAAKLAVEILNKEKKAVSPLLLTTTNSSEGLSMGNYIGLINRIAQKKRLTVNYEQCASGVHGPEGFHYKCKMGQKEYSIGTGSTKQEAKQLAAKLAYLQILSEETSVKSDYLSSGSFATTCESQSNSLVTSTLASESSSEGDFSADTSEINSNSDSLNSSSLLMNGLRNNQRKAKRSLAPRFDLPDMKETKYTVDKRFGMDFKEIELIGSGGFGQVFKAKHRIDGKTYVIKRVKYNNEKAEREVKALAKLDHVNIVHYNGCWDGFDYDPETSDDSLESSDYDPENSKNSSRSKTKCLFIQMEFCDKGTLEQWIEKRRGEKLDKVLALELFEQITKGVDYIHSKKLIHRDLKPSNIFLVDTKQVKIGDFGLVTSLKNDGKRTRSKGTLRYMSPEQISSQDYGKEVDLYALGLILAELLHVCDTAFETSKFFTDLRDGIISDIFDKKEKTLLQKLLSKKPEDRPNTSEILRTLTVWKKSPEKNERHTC

SMILES: C=CC(=O)Nc1cc(-c2cc(-c3cc4c([nH]3)CCNC4=O)ccn2)ccc1OC(F)(F)F [compound 11]
- inhibition at 0.01 µM ([1]; 10 nM): 10%
- inhibition at 0.1 µM ([1]; 100 nM): 33%
- inhibition at 1 µM ([1]; 1000 nM): 61%
- inhibition at 0.01 µM ([2]; 10 nM): 3%
- inhibition at 0.1 µM ([2]; 100 nM): 3%
- inhibition at 1 µM ([2]; 1000 nM): 9%
- inhibition at 0.01 µM ([3]; 10 nM): -2%
- inhibition at 0.1 µM ([3]; 100 nM): -5%
- inhibition at 1 µM ([3]; 1000 nM): -2%
- inhibition at 0.01 µM ([4]; 10 nM): 2%
- inhibition at 0.1 µM ([4]; 100 nM): 9%
- inhibition at 1 µM ([4]; 1000 nM): 0%
- inhibition at 0.01 µM ([5]; 10 nM): -3%
- inhibition at 0.1 µM ([5]; 100 nM): -2%
- inhibition at 1 µM ([5]; 1000 nM): -2%
- inhibition at 0.01 µM ([6]; 10 nM): 1%
- inhibition at 0.1 µM ([6]; 100 nM): -13%
- inhibition at 1 µM ([6]; 1000 nM): -7%
